Compound in test [1]: O=[As]([O-])(O)O.[K+] [potassium arsenate]
Kind of test: thermal stability z-score vs DMSO; higher = more thermally stabilized by treatment. As to conditions: HeLa; arsenate concentration 1 mM. The method, then: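 Cellular thermal proteome profiling in HeLa cells treated with 1 mM arsenate for 1 h (DMSO pretreatment), heated to ten temperatures (37-66.3 °C). Soluble protein was quantified by TMT mass spectrometry relative to DMSO controls; the thermal stability score was transformed to a z-score; mean of n = 3 experiments.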

Compound in test [2]: NC(=O)CCCCC1CCSS1 [lipoamide]
The description is as above. As to conditions: HeLa, lipoamide concentration 100 µM. On the procedure: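 Cellular thermal proteome profiling in HeLa cells. Cells were treated with 100 µM lipoamide for 1 h, with or without 1 mM arsenate for a further 1 h, then heated to ten temperatures (37-66.3 °C), and soluble protein was quantified by TMT mass spectrometry relative to 0.1% DMSO controls. The thermal stability score (sum of log2 fold changes minus the abundance score) was transformed to a z-score; mean of n = 3 experiments.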

Where [3] appears, read: arsenate co-treatment: 1 mM arsenate 1 h.
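Note: each temperature applied for 3 min, abundance score taken as mean log2 fold change at the two lowest temperatures, z-score obtained by mean subtraction and division by SD.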

UniProt P52298, sequence (P52298 whole entry): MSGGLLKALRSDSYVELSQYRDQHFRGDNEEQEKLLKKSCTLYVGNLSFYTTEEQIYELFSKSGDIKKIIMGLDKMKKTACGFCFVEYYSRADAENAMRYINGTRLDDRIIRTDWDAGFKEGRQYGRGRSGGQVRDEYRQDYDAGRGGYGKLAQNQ
UniProt O43505, sequence (O43505 whole entry, one chain of several): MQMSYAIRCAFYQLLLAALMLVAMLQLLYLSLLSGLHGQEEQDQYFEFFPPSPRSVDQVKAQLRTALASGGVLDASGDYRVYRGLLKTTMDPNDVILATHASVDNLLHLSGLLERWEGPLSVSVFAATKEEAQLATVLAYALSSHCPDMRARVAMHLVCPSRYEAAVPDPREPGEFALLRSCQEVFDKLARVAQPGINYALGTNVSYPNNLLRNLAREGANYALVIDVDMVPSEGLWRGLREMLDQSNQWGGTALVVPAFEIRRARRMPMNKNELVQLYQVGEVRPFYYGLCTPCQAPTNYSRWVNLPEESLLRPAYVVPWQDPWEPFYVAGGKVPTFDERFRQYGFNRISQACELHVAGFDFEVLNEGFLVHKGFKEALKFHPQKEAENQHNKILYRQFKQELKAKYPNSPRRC
UniProt Q8TDP1, sequence (Q8TDP1 whole entry): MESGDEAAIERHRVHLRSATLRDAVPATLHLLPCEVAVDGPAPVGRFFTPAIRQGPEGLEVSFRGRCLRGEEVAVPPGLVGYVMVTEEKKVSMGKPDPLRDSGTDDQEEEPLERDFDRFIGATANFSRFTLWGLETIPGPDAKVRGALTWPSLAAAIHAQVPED
UniProt P54756, sequence (P54756 whole entry): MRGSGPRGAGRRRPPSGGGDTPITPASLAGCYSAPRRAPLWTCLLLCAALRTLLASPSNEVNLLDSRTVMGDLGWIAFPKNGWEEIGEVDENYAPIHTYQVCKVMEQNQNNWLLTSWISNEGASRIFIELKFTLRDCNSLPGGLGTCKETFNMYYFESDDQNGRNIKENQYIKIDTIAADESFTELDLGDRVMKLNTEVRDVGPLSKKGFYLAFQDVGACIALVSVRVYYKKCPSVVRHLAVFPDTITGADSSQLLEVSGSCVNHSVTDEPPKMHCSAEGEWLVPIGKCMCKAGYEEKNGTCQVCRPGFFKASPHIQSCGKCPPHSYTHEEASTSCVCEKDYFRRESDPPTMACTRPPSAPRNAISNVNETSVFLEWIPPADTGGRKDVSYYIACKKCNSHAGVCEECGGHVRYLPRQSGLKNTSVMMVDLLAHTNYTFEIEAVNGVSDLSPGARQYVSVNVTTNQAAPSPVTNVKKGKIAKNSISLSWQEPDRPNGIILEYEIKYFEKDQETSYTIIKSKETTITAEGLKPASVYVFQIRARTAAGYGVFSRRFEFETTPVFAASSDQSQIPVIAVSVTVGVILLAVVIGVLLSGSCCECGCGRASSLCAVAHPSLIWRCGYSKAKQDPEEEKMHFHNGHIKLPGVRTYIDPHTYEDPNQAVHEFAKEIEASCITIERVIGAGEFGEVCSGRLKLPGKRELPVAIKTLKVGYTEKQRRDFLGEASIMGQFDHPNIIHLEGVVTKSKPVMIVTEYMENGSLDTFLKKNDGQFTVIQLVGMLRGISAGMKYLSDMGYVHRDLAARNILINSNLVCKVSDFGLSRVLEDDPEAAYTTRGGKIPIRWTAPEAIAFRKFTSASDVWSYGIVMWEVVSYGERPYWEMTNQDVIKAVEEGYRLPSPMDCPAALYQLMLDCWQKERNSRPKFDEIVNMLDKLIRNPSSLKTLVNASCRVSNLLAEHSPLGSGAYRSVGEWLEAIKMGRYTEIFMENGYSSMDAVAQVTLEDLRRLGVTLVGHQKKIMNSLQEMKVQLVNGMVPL
UniProt P50748, sequence (P50748 whole entry): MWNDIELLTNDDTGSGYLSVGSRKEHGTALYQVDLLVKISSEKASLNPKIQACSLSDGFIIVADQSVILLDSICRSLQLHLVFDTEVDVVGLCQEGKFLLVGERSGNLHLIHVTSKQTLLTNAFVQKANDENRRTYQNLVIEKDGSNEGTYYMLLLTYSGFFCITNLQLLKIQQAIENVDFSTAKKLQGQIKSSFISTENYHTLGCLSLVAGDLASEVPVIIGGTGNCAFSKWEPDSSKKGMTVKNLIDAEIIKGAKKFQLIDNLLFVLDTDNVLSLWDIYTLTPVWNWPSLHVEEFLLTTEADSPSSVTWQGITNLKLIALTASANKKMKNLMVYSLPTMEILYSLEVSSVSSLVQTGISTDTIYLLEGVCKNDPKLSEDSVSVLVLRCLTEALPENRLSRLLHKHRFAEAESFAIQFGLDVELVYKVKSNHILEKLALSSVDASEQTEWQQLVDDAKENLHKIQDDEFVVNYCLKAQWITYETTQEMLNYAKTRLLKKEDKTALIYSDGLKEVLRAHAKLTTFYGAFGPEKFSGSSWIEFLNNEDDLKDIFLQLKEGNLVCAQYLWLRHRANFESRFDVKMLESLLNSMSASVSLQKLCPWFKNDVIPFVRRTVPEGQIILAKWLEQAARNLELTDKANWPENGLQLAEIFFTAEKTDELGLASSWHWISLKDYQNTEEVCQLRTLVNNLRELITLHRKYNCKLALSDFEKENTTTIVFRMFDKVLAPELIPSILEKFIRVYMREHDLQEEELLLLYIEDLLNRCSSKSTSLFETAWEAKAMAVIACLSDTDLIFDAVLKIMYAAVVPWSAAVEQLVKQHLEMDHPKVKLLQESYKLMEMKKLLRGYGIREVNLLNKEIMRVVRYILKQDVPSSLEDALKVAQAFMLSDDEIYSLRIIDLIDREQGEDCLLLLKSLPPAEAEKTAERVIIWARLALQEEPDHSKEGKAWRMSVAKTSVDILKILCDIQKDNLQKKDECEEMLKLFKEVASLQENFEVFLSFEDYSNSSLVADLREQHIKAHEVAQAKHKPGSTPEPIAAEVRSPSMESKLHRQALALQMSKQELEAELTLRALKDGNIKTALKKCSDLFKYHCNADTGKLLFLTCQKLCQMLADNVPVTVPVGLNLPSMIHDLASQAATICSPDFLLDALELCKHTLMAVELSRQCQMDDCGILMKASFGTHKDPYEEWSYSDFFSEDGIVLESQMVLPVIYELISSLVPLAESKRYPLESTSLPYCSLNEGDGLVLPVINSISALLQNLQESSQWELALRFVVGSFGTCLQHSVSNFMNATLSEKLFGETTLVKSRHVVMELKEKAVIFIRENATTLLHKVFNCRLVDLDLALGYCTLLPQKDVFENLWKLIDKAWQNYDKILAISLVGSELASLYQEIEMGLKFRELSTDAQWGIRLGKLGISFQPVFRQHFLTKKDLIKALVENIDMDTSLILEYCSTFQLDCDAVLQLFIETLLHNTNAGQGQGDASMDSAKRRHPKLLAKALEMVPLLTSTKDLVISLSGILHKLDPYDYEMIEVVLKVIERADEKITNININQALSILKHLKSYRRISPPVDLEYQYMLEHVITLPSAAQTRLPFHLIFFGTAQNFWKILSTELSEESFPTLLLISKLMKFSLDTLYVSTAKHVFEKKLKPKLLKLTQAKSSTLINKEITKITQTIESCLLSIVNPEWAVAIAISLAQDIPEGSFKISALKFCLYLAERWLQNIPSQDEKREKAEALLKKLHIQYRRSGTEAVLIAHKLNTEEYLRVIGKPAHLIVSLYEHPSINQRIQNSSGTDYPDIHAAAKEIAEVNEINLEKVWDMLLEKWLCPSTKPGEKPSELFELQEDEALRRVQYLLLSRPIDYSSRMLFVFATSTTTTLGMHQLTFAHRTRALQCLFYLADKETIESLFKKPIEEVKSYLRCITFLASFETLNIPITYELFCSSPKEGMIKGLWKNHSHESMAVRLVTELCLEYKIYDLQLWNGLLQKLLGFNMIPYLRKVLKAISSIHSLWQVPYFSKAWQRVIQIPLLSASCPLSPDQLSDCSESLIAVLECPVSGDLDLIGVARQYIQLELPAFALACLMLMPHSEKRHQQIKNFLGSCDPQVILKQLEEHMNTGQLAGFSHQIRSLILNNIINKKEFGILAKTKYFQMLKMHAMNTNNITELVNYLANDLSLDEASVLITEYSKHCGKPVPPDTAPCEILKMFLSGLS
UniProt A1X283, sequence (A1X283 whole entry): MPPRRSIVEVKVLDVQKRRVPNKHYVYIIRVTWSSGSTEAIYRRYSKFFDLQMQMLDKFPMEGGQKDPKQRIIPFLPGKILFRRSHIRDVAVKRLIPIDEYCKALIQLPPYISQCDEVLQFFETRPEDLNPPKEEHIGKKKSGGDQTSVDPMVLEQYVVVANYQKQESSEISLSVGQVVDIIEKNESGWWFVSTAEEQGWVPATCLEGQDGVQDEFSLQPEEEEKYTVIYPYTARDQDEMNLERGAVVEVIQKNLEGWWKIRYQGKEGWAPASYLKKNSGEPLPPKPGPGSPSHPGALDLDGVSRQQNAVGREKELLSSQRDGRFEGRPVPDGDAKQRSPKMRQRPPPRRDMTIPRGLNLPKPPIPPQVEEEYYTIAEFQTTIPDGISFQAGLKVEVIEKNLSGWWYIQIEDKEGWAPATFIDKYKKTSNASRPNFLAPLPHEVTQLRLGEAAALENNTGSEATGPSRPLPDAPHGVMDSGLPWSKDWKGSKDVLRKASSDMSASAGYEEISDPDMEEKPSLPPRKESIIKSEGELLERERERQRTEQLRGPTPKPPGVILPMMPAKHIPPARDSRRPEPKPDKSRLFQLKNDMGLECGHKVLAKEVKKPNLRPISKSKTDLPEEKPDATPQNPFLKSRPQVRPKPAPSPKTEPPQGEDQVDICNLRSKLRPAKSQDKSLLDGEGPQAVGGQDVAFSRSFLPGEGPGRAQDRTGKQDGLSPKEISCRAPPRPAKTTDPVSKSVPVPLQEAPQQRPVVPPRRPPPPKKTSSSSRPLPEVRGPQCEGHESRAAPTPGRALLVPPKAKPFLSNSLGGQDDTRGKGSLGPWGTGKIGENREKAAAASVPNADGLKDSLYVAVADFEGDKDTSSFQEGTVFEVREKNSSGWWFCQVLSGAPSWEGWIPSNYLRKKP
UniProt Q13442, sequence (Q13442 whole entry): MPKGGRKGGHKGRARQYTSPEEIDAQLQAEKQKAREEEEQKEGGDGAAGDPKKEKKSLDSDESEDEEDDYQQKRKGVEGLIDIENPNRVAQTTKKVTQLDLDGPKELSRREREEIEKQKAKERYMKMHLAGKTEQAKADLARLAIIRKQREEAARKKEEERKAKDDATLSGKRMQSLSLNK

For the target ACSL4 (UniProt O60488), the thermal stability z-score in test [1] was -1.66; in test [2] (setting [3]), 0.208; in test [2] (arsenate co-treatment: none), 0.296.
For RDH14 (UniProt Q9HBH5) the same measures were 1.53, 1.25 and 0.852.
The like results for XRCC1 (UniProt P18887) were, in that order, -0.417, -0.0745 and 0.0492.
The like results for SYPL1 (UniProt Q16563) were, in that order, 0.425, 0.951 and -0.0774.
With LCMT2 (UniProt O60294), the thermal stability z-score in test [1] is -0.332; in test [2] (setting [3]), -0.107; in test [2] (arsenate co-treatment: none), -0.78.
The like results for NDUFS5 (UniProt O43920) were, in that order, 0.133, -0.473 and -0.963.
The like results for HSPE1 (UniProt P61604) were, in that order, 0.112, 1.5 and 0.918.
The like results for ARFGAP3 (UniProt Q9NP61) were, in that order, 0.0267, 0.116 and 0.294.
MTA3 (UniProt Q9BTC8): the figures for the thermal stability z-score in test [1], in test [2] (setting [3]) and in test [2] (arsenate co-treatment: none) were -0.13, 0.106 and 0.129, respectively.
As for MAD2L1 (UniProt Q13257), the thermal stability z-score in test [1] is 1.96; in test [2] (setting [3]), -0.109; in test [2] (arsenate co-treatment: none) it was -0.147.
For EMC3 (UniProt Q9P0I2) the same measures were -0.133, -0.0707 and -0.245.
For ENGASE (UniProt Q8NFI3) the same measures were -0.36, 0.198 and 0.101.
The like results for CEP97 (UniProt Q8IW35) were, in that order, -0.411, -0.477 and 0.495.
For the target B4GAT1 (UniProt O43505), the values for the thermal stability z-score in test [1], in test [2] (setting [3]) and in test [2] (arsenate co-treatment: none) were 0.0622, -0.309 and -0.831, respectively.
The like results for RAB18 (UniProt Q9NP72) were, in that order, 0.672, 0.167 and 0.352.
The like results for NCBP2 (UniProt P52298) were, in that order, -0.0118, 0.782 and 0.577.
The like results for FAM175B (UniProt Q15018) were, in that order, -0.57, 0.515 and 0.293.
HPD (UniProt P32754): the thermal stability z-score was found to be 1.61 in test [1], 0.25 in test [2] (setting [3]) and 0.117 in test [2] (arsenate co-treatment: none).
The like results for IMPDH2 (UniProt P12268) were, in that order, 1.25, -0.759 and -0.205.
As for KNTC1 (UniProt P50748), the thermal stability z-score in test [1] is 0.572; in test [2] (setting [3]), -0.59; in test [2] (arsenate co-treatment: none), -0.253.
The like results for SLC33A1 (UniProt O00400) were, in that order, 0.345, 0.69 and 1.25.
The like results for SEC14L1 (UniProt Q92503) were, in that order, -0.169, -0.149 and -0.0215.
The like results for RNASEH2C (UniProt Q8TDP1) were, in that order, -0.406, -0.258 and -0.493.
For the target SNAP23 (UniProt O00161), the results for the thermal stability z-score in test [1], in test [2] (setting [3]) and in test [2] (arsenate co-treatment: none) were -0.16, 0.994 and 1.06, respectively.
With NDUFAF5 (UniProt Q5TEU4), the thermal stability z-score in test [1] was 0.155; in test [2] (setting [3]), -0.066; in test [2] (arsenate co-treatment: none), -0.112.
The like results for AHNAK (UniProt Q09666) were, in that order, 2.03, 1.35 and 1.69.
The like results for C11ORF98 (UniProt E9PRG8) were, in that order, -1.91, -0.688 and -0.534.
For PDAP1 (UniProt Q13442) the same measures were -0.0329, 0.179 and 0.298.
MYO6 (UniProt Q9UM54): the thermal stability z-score in test [1] was -0.115; in test [2] (setting [3]) it was 0.203; in test [2] (arsenate co-treatment: none) it was 0.26.
For EPHA5 (UniProt P54756) the same measures were 0.746, 0.8 and 0.338.
The like results for SH3PXD2B (UniProt A1X283) were, in that order, -0.433, -0.428 and -0.272.
For PRPF40A (UniProt O75400), the thermal stability z-score is 0.00775 in test [1], -0.0187 in test [2] (setting [3]) and 0.00497 in test [2] (arsenate co-treatment: none).
For MAN2A1 (UniProt Q16706) the same measures were -0.264, -0.502 and -0.428.
The like results for LONP1 (UniProt P36776) were, in that order, -0.763, -0.482 and -0.277.
In the case of UBE2F (UniProt Q969M7), the thermal stability z-score in test [1] is -0.224; in test [2] (setting [3]) it was -0.0267; in test [2] (arsenate co-treatment: none) it was -0.0251.
The like results for UniProt E9PSI1 were, in that order, -0.346, -0.0572 and -0.622.
On to RLIM (UniProt Q9NVW2), for which the thermal stability z-score in test [1] is 0.107; in test [2] (setting [3]) it was -0.546; in test [2] (arsenate co-treatment: none), -0.0531.
For the target ENSA (UniProt O43768), the thermal stability z-score in test [1] was 0.481; in test [2] (setting [3]), 0.841; in test [2] (arsenate co-treatment: none) it was 0.567.
For NQO2 (UniProt P16083) the same measures were 0.389, 1.23 and 0.788.
Turning to ACTR5 (UniProt Q9H9F9), the values for the thermal stability z-score in test [1], in test [2] (setting [3]) and in test [2] (arsenate co-treatment: none) were -0.0841, -0.0353 and -0.0633, respectively.
For PKM (UniProt P14618) the same measures were -0.166, 0.109 and 0.0166.
For EXOSC8 (UniProt Q96B26) the same measures were -0.573, 0.692 and -0.359.
